# Assay results taken from patent US9993447B2, “Systems and methods for increasing agmatine cellular uptake by oral administration” (priority 2015, dated 2018).
# Experiments:
# [1] = oral, with high-intensity periodized resistance training; cited from earlier work
# [2] = pH of 1% agmatine salt solutions in purified water at room temperature; assay type: physicochemical; conditions: 1% in purified water
# Source text: Compounds and formulations according to embodiments of the present disclosure may provide a method to increase cellular uptake of agmatine in an animal or human. It should be appreciated that agmatine uptake may increase dramatically with increasing pH, and protonation of the amino group of agmatine is dependent on pH. The guanidinium group in agmatine has a pH of about 12.5 in aqueous solution while the amino group in agmatine has a pH of about 9. At the physiological pH, agmatine may be protonated and thus, requires transporters for uptake into the cells to occur. The fraction of the molecules having a single positive charge may increase as pH increases. […] This is reflected in FIGS. 1 and 2.
# [3] = 300 mg daily for 6 weeks, young healthy trained athletes; cited from earlier work
# [4] = cited from earlier work
# [5] = concentration of 1 mM; cited from earlier work
# rat = rat experimental model; cited from earlier work
# pH of buffer media = assay type: physicochemical; conditions: room temperature
# Source text: Crea-Trona® is also known as buffered creatine. During the fabrication process, AlzChem uses a double buffer from sodium carbonate and sodium bi-carbonate, both natural minerals, which creates an alkaline environment with a pH value between 8 and 12. Crea-Trona is more efficient than other types of creatine, including those with an alkaline pH-buffer (kre-alkalynes). The double buffer prevents the pH-value in the muscles from dropping rapidly during the workout. This may lead to a larger training volume and may stimulate faster recovery of the original pH-value after the workout.
# To maximize the benefits of oral administration of agmatine salts according to embodiments of the present disclosure, a buffer media may be used in formulations, or a stable mono-protonated or neutral form of such agmatine salts should be administered instead. As reflected in the formulations described above according to embodiments of the present disclosure, different buffer media have been used including Crea-Trona (such as that offered by AlzChem), arginine base, as well as Effer-Soda (such as that offered by SPI Pharma). However, it should be appreciated that other buffer media, such as potassium carbonate or potassium bicarbonate, may be utilized without departing from the present disclosure. Such buffer media may elevate the pH of the formulation. […]
# [6] = prior intake, trained young men; cited from earlier work
# [7] = Titration of 1% agmatine salt solutions with aqueous 0.1N HCl; assay type: physicochemical; conditions: 1% solution titrated with 0.1N HCl
# Procedure: FIG. 1 depicts a graphical representation of 1% agmatine salt solutions in a titration with an aqueous 0.1N HCl solution according to an embodiment of the present disclosure;
# (§1) The pH dependence has been evaluated in acidic as well as basic conditions. […] About 15 mL of 0.1N HCl may be used to lower the pH of agmatine phosphate at around 3 while other agmatine salts, at the same concentration and in the same measuring conditions, required approximately 2-4 mL to change to an acidic pH. The same kind of behavior was observed when solutions of agmatine salts were titrated with a solution of agmatine base. About 20 mL were required to make the pH alkaline (above 8) in the case of agmatine phosphate, while other agmatine salts required approximately 2-3 mL to achieve the same pH range. Taking these observations into consideration along with the fact that better uptake of agmatine is observed at a higher pH, it should be appreciated that agmatine dihydrochloride and agmatine phosphate may be more desirable agmatine salts than agmatine sulfate for improving bioavailability of orally administered agmatine.
# [8] = Titration of 1% agmatine salt solutions with 5% aqueous arginine base; assay type: physicochemical; conditions: 1% solution titrated with 5% arginine base, room temperature
# Procedure: FIG. 2 depicts a graphical representation of 1% agmatine salt solutions in a titration with an 5% aqueous arginine base solution at room temperature according to an embodiment of the present disclosure;
# as §1
# [9] = approximately 150 g over three days, oral; cited from earlier work
smiles,measurement,setting,value
"Nc1ncnc2c1ncn2[C@@H]1O[C@H](COP(=O)(O)OP(=O)(O)OP(=O)(O)O)[C@@H](O)[C@H]1O [ATP, adenosine triphosphate]","Muscle mass, strength, and power compared with placebo-matched control",[1],"increases muscle mass, strength, and power"
Cl.Cl.N=C(N)NCCCCN [agmatine dihydrochloride],pH of 1% agmatine salt solution,[2],6.4
"N=C(N)NCCCCN.O=S(=O)(O)O [agmatine sulfate, reference compound]",pH of 1% agmatine salt solution,[2],4.8
"COc1c(O)c(C)c(C/C=C(\C)CC/C=C(\C)CC/C=C(\C)CC/C=C(\C)CC/C=C(\C)CC/C=C(\C)CC/C=C(\C)CC/C=C(\C)CC/C=C(\C)CCC=C(C)C)c(O)c1OC [Ubiquinol, ubiquinol]",Maximum power output versus placebo,[3],+0.08 W/kg bw
same,"Maximum power output versus placebo, relative change",[3],+2.5%
"N=C(N)NCCCCN [agmatine, (4-aminobutyl)guanidine]",pKa value of the guanadino group,[4],12.5
same,Cytotoxic effects,[5],no cytotoxic effects
same,Lethal dose,rat,1 to 10 mg/kg
"N=C(N)NCCC[C@H](N)C(=O)O [Arginine base, arginine]",pH of arginine base in solution,pH of buffer media,around 10
O=C([O-])O.[Na+] [sodium bicarbonate],High-intensity intermittent exercise performance,[6],improved
N=C(N)NCCCCN.O=P(O)(O)O [agmatine phosphate],pH of 1% agmatine salt solution,[2],5.7
same,Volume of 0.1N HCl used to lower the pH to around 3 (acidic pH),[7],About 15 mL
same,Volume of base solution required to make the pH alkaline (above 8),[8],About 20 mL
O=C[C@H](O)[C@H](O)[C@H](O)CO [D-ribose],Rate of ATP replenishment over three days of rest compared to placebo sugar (maltodextrin),[9],greater
